The values below come from patent publication US6110961A, “Phenoxathin derivatives as inhibitors of monoamine oxidase” (Krenitsky Pharmaceuticals, Inc., priority 1999, dated 2000).

Each structure is given as a SMILES string.

The test system of one experiment is MAO.
Experiment: not given
Particulars: background art; cited from earlier work.
Regarding `NNCCc1ccccc1` [phenelzine], the “selectivity and reversibility of MAO inhibition” value was “non-selective, irreversible inhibitors”.

Consider `Cc1cc(C(=O)NNCc2ccccc2)no1` [isocarboxazid], for which the “selectivity and reversibility of MAO inhibition” value is reported as “non-selective, irreversible inhibitors”.

As for `N[C@@H]1C[C@H]1c1ccccc1` (relative stereo) [tranylcypromine], the “selectivity and reversibility of MAO inhibition” value is recorded as “non-selective, irreversible inhibitors”.

In another experiment the target is T1, MAO-A (Rattus norvegicus, UniProt P21396).
T1 construct: mitochondrial extracts of rat brain; from tissue; host or cells: rat brain, mitochondrial extracts
T1 sequence (P21396 1-526): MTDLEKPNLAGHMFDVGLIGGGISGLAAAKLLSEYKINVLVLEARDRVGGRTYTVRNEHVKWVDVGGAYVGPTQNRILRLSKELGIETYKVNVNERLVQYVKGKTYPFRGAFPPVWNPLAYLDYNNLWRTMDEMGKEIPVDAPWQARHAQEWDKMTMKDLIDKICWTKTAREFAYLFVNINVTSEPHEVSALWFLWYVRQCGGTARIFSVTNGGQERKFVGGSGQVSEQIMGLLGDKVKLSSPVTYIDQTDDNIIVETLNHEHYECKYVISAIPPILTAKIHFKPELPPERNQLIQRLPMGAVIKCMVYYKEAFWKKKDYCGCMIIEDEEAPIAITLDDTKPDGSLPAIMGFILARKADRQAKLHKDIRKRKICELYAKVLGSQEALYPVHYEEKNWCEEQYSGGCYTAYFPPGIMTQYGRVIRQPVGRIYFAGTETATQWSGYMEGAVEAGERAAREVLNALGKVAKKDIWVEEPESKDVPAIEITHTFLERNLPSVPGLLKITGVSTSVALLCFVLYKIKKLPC
Nature of the experiment: MAO-A inhibition in mitochondrial extracts of rat brain (in vitro, double-label assay). The note with it: [3H]serotonin 0.2 mM substrate. It is filed as biochemical. The method, then:
MAO was assayed with [^3 H]serotonin (0.2 mM, 5 Ci/mole) and [^14 C]β-phenethylamine (10 μM, 3 Ci/mole) as substrates in a double-label assay (white and Glassman, J. Neurochem. 29:987-97 (1977)). Under these conditions, serotonin is selectively metabolized by MAO-A and β-phenethylamine by MAO-B. […]
Compounds of formula (I) produced a potent selective inhibition of MAO-A in mitochondrial extracts of rat brain, the IC50 s (concentration producing 50% inhibition) being shown in Table I. This inhibition was competitive vs. the substrates serotonin or tyramine.
The results are shown in Table 1 with the IC50 being the concentration providing 50% inhibition. No significant inhibition of MAO-B was found with these compounds.
The molecule `O=S1(=O)c2ccccc2Oc2cc(OC(C(F)F)C(F)F)ccc21` [Compound 24, 3-(2,2-(difluoro)-1-(difluoromethyl)ethoxy)phenoxathiin-10,10-dioxide] yielded an IC50 of 3.5 nM.

As to `O=S1(=O)c2ccccc2Oc2cc(OCC(F)(F)F)ccc21` [Compound 22, 3-(2,2,2-trifluoroethoxy)phenoxathiin 10,10-dioxide], the IC50 stood at 8 nM.

Turning to `COc1ccc2c(c1)Oc1ccccc1S2(=O)=O` [Compound 14, 3-methoxyphenoxathiin 10,10-dioxide], half-maximal inhibition (IC50) was put at 20 nM.

With `CCCCOc1ccc2c(c1)Oc1ccccc1S2(=O)=O` [Compound 8, 3-butoxyphenoxathiin 10,10-dioxide], the IC50 was determined as 5 nM.

Consider `O=S1(=O)c2ccccc2Oc2cc(OC(CF)C(F)(F)F)ccc21` (racemic) [Compound 26, (rac)-3-(2-fluoro-1-(trifluoromethyl)ethoxy)phenoxathiin-10,10-dioxide], for which the “MAO-A Inhibition (rat brain) in vitro IC50” value (“MAO-A Inhibition (rat brain)” below) is reported as “active”.

Molecule `CC(C)Oc1cc(F)c2c(c1)Oc1cc(F)ccc1S2(=O)=O` [Compound 19, 1,7-difluoro-3-isopropoxyphenoxathiin 10,10-dioxide] had an IC50 of 5 nM.

For `CCCCCOc1ccc2c(c1)Oc1ccccc1S2(=O)=O` [Compound 17, 3-(pentyloxy)phenoxathiin 10,10-dioxide], 55 nM corresponded to half-maximal inhibition (IC50).

Molecule `CCC(C)Oc1ccc2c(c1)Oc1ccccc1S2(=O)=O` (racemic) [Compound 13, (rac)-3-(1-methylpropoxy)phenoxathiin-10,10-dioxide] gave a half-maximal inhibitory concentration (IC50) of 14 nM.

In the case of `CCCOc1ccc2c(c1)Oc1ccccc1S2(=O)=O` [Compound 3, 3-propoxyphenoxathiin 10,10-dioxide], 2.5 nM corresponded to half-maximal inhibition (IC50).

As for `CC(CF)Oc1ccc2c(c1)Oc1ccccc1S2(=O)=O` (racemic) [Compound 27, (rac)-3-(1-(fluoromethyl)ethoxy)phenoxathiin-10,10-dioxide], the “MAO-A Inhibition (rat brain)” value is “active”.

For the molecule `CC(C)Oc1cc2c(c(F)c1F)S(=O)(=O)c1ccccc1O2` [Compound 4, 1,2-difluoro-3-isopropoxyphenoxathiin 10,10-dioxide], inhibition was half-maximal at 3 nM (IC50).

`CC(Oc1ccc2c(c1)Oc1ccccc1S2(=O)=O)C(F)(F)F` (racemic) [Compound 20, (rac)-3-(2,2,2-trifluoro-1-methylethoxy)phenoxathiin-10,10-dioxide] came in with a half-maximal inhibitory concentration (IC50) of 5 nM.

Molecule `CC(C)Oc1ccc2c(c1)Oc1cc(F)ccc1S2(=O)=O` [Compound 11, 7-fluoro-3-isopropoxyphenoxathiin 10,10-dioxide] gave an IC50 of 9 nM.

Consider `CCOc1ccc2c(c1)Oc1ccccc1S2(=O)=O` [Compound 2, 3-ethoxyphenoxathiin 10,10-dioxide], for which the IC50 was determined as 2 nM.

The molecule `CC(C)Oc1cc(F)c2c(c1)Oc1ccccc1S2(=O)=O` [Compound 1, 1-fluoro-3-isopropoxyphenoxathiin 10,10-dioxide] came in with an IC50 of 1.1 nM. Against the preceding molecule, the IC50 is about 1.8-fold lower.

In turn, `CC(Oc1ccc2c(c1)Oc1ccccc1S2(=O)=O)C(F)F` (racemic) [Compound 25, (rac)-3-(1-(difluoromethyl)ethoxy)phenoxathiin-10,10-dioxide] showed an IC50 of 1.8 nM.

With `CC(C)(C)Oc1ccc2c(c1)Oc1ccccc1S2(=O)=O` [Compound 15, 3-tert-butoxyphenoxathiin 10,10-dioxide], the IC50 was found to be 26 nM. Compared with the last molecule, the IC50 is about 14-fold higher.

For `CC(C)Oc1ccc2c(c1)Oc1cc(F)c(F)cc1S2(=O)=O` [Compound 9, 7,8-difluoro-3-isopropoxyphenoxathiin-10,10-dioxide], the IC50 amounted to 6 nM.

As to `O=S1(=O)c2ccccc2Oc2cc(OC(CO)C(F)(F)F)ccc21` (racemic) [Compound 28, (rac)-2-(3-phenoxathiinyloxy)-2-(trifluoromethyl)ethanol-S,S-dioxide], the half-maximal inhibitory concentration (IC50) worked out at 5 nM.

On to `CC(C)Oc1cc2c(cc1F)S(=O)(=O)c1ccccc1O2` [Compound 12, 2-fluoro-3-isopropoxyphenoxathiin 10,10-dioxide], for which the IC50 stood at 12 nM.

In the case of `O=S1(=O)c2ccccc2Oc2cc(OC(CF)CF)ccc21` [Compound 23, 3-[2-fluoro-1-(fluoromethyl)ethoxy]phenoxathiin-10,10-dioxide], the IC50 is 2 nM.

Take `CC(Oc1ccc2c(c1)Oc1ccccc1S2(=O)=O)C(F)(F)F` (single isomer, unassigned) [Compound 29, (R*)-3-(2,2,2-trifluoro-1-methylethoxy)phenoxathiin-10,10-dioxide]: the half-maximal inhibitory concentration (IC50) came to 2 nM.

Take `C[C@@H](CO)Oc1ccc2c(c1)Oc1ccccc1S2(=O)=O` [Compound 21, (S)-(+)-2-(3-phenoxathiinyloxy)propanol S,S-dioxide]: the concentration for half-maximal inhibition (IC50) is 70 nM.

The molecule `CC[C@H](C)Oc1ccc2c(c1)Oc1ccccc1S2(=O)=O` [Compound 7, (S)-3-(1-methylpropoxy)phenoxathiin 10,10-dioxide] returned a concentration for half-maximal inhibition (IC50) of 4 nM.

In the case of `CC[C@@H](C)Oc1ccc2c(c1)Oc1ccccc1S2(=O)=O` [Compound 6, (R)-3-(1-methylpropoxy)phenoxathiin 10,10-dioxide], the half-inhibitory concentration (IC50) came to 4 nM.

The molecule `CC(C)Oc1ccc2c(c1)Oc1ccccc1S2(=O)=O` [Compound 5, 3-isopropoxyphenoxathiin 10,10-dioxide] yielded an IC50 of 3.4 nM. This IC50 and that of the molecule before are within 1.5-fold of each other.

For the molecule `CC(C)Oc1ccc2c(c1)Oc1cccc(F)c1S2(=O)=O` [Compound 10, 9-fluoro-3-isopropoxyphenoxathiin 10,10-dioxide], the concentration for half-maximal inhibition (IC50) came out at 8 nM.

Take `CC(C)Oc1cc2c(cc1F)S(=O)(=O)c1ccc(F)cc1O2` [Compound 16, 2,7-difluoro-3-isopropoxyphenoxathiin 10,10-dioxide]: the IC50 is 35 nM.

The molecule `CC(CO)Oc1ccc2c(c1)Oc1ccccc1S2(=O)=O` (racemic) [Compound 18, (rac)-2-(3-phenoxathiinyloxy)propanol S,S-dioxide] had an IC50 of 20 nM.

In the case of `O=S1(=O)c2ccc(F)cc2Oc2cc(OCC(F)(F)F)ccc21` [Compound 31, 3-fluoro-7-(2,2,2-trifluoroethoxy)phenoxathiin-10,10-dioxide], the “MAO-A Inhibition (rat brain)” value is recorded as “active”.

`CC(Oc1ccc2c(c1)Oc1ccccc1S2(=O)=O)C(F)(F)F` (single isomer, unassigned) [Compound 30, (S*)-3-(2,2,2-trifluoro-1-methylethoxy)phenoxathiin-10,10-dioxide] showed an IC50 of 14 nM.

A further experiment relates to liver MAO-A.
Experiment: not given
The note with it: single oral dose giving approximately 80% inhibition of brain MAO-A; 3 hours.
`NNCCc1ccccc1` [phenelzine]: the “inhibition of liver MAO-A” value is listed as not below 90%.

Usually IC50 stands for the concentration that gives 50% inhibition.
